Experimental data reported in the NIST ThermoML archive (doi:10.1021/je0499420).
Numbers after ± are expanded uncertainties.

Legend:
[1] = Liquid; for Critical pressure: Direct measurement; for Critical temperature: Visual observation in an unstirred cell
[2] = xn = mol fraction of the nth substance listed; details: Liquid

Structure (SMILES) | Critical density [1] [kg/m3] | Critical pressure [1] [kPa] | Critical temperature [1] [K] | Critical density ([2]; x2 = 0) [kg/m3] | Critical density ([2]; x1 = 1) [kg/m3] | also measured
FC(C(F)(F)F)C(F)(F)F [1,1,1,2,3,3,3-heptafluoropropane] | 598 ± 14 | 2930 ± 12 | 375 ± 0.16 |  |  | 
FC(C(F)(F)F)C(F)(F)F [1,1,1,2,3,3,3-heptafluoropropane] + COC(F)(F)C(F)(F)F |  |  |  | 598 ± 14 |  | 
FC(F)C(F)C(F)(F)F (stereo not drawn) [1,1,1,2,3,3-hexafluoropropane] | 562 ± 13 | 3416 ± 12 | 412.41 ± 0.16 |  |  | 
FC(F)C(F)C(F)(F)F (stereo not drawn) [1,1,1,2,3,3-hexafluoropropane] + COC(F)(F)C(F)(F)F |  |  |  | 562 ± 13 |  | Critical density ([2]; x2 = 0.1546): 550 ± 13 kg/m3; Critical density ([2]; x2 = 0.3124): 535 ± 12 kg/m3; Critical density ([2]; x2 = 0.4485): 534 ± 12 kg/m3; Critical density ([2]; x2 = 0.6388): 520 ± 12 kg/m3; Critical density ([2]; x2 = 0.7888): 506 ± 12 kg/m3
FCC(F)(F)F [1,1,1,2-tetrafluoroethane] | 508 ± 12 | 4053 ± 12 | 374.13 ± 0.16 |  |  | 
FCC(F)(F)F [1,1,1,2-tetrafluoroethane] + COC(F)(F)C(F)(F)F |  |  |  | 508 ± 12 |  | 
COC(F)(F)C(F)(F)F [methyl pentafluoroethyl ether] | 491 ± 11 | 2885 ± 12 | 406.82 ± 0.16 |  |  | 
COC(F)(F)C(F)(F)F [methyl pentafluoroethyl ether] + FC(C(F)(F)F)C(F)(F)F |  |  |  |  | 491 ± 11 | Critical density ([2]; x1 = 0.1823): 584 ± 14 kg/m3; Critical density ([2]; x1 = 0.306): 558 ± 13 kg/m3; Critical density ([2]; x1 = 0.4769): 545 ± 13 kg/m3; Critical density ([2]; x1 = 0.6944): 531 ± 12 kg/m3; Critical density ([2]; x1 = 0.8132): 519 ± 12 kg/m3
COC(F)(F)C(F)(F)F [methyl pentafluoroethyl ether] + FC(F)C(F)(F)F |  |  |  |  | 491 ± 11 | Critical density ([2]; x1 = 0.1408): 551 ± 13 kg/m3; Critical density ([2]; x1 = 0.2438): 543 ± 13 kg/m3; Critical density ([2]; x1 = 0.4346): 540 ± 13 kg/m3; Critical density ([2]; x1 = 0.5897): 536 ± 12 kg/m3; Critical density ([2]; x1 = 0.7753): 521 ± 12 kg/m3
COC(F)(F)C(F)(F)F [methyl pentafluoroethyl ether] + FC(F)C(F)C(F)(F)F |  |  |  |  | 491 ± 11 | 
COC(F)(F)C(F)(F)F [methyl pentafluoroethyl ether] + FCC(F)(F)F |  |  |  |  | 491 ± 11 | Critical density ([2]; x1 = 0.1167): 508 ± 12 kg/m3; Critical density ([2]; x1 = 0.2446): 512 ± 12 kg/m3; Critical density ([2]; x1 = 0.4299): 509 ± 12 kg/m3; Critical density ([2]; x1 = 0.5886): 506 ± 12 kg/m3; Critical density ([2]; x1 = 0.7674): 503 ± 12 kg/m3
FC(F)C(F)(F)F [pentafluoroethane] | 560 ± 13 | 3617 ± 12 | 339.2 ± 0.16 |  |  | 
FC(F)C(F)(F)F [pentafluoroethane] + COC(F)(F)C(F)(F)F |  |  |  | 560 ± 13 |  | 
